Measurements published in patent publication US20190345138A1, “HETEROCYCLIC AMIDES AS KINASE INHIBITORS” (GlaxoSmithKline Intellectual Property Development Limited, priority 2016, published 2019).
Several values for one entry are separate records, joined by “and”; a condition that tells them apart may be missing. Equal entries are not always repeated.

What was measured:
[1] = tested on: human monocytic leukemia U937 cells; assay: necroptosis assay in U937 cells; assay type: cell-based; conditions: Homo sapiens, U-937, U937 cells; viability by cellular ATP (Cell Titer-Glo); read-out: pIC50, inhibited necrosis in U937 cells (converted)
In short: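 Necroptosis was induced in human U937 or mouse L929 cells, and viability was quantified as cellular ATP with Cell Titer-Glo. Data are means±standard deviation.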

RIP1 kinase = molecular target: T1, RIP1 kinase (Homo sapiens, UniProt Q13546); assay: fluorescent polarization based binding assay; conditions: mean of a minimum of 2 experiments
T1 sequence (Q13546 1-375 limits assumed): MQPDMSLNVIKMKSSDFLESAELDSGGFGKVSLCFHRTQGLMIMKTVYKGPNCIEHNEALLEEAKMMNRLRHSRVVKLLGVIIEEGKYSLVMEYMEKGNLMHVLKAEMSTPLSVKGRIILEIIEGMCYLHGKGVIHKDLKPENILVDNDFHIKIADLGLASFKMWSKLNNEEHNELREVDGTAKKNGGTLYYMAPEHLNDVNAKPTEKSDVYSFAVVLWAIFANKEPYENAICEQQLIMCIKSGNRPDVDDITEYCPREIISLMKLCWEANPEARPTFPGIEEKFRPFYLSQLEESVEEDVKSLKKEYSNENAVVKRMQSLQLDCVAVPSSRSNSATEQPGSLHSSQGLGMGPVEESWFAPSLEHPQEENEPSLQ
From the text: A fluorescent polarization based binding assay was used to assess the activity of the compounds of this invention, the details of which are disclosed in International Patent Appln. No. PCT/IB2014/059004, now, International Patent Appln. Pub.

Row | IC50 (RIP1 kinase) | Compound | IC50 [1] [nM]
1 | 1 to 31.6 nM | N#Cc1cccc([C@@H]2CC=NN2C(=O)C2CCN(c3ncc(F)c(N)n3)CC2)c1 [Example 72, (S)-3-(1-(1-(4-amino-5-fluoropyrimidin-2-yl)piperidine-4-carbonyl)-4,5-dihydro-1H-pyrazol-5-yl)benzonitrile] | 1 to 100
2 | 1 to 31.6 nM and 1 to 10 nM | CSc1nccc(N2CCC(C(=O)N3N=CC[C@H]3c3cc(F)cc(F)c3)CC2)n1 [Example 82, (S)-(5-(3,5-difluorophenyl)-4,5-dihydro-1H-pyrazol-1-yl)(1-(2-(methylthio)pyrimidin-4-yl)piperidin-4-yl)methanone] | 1 to 100
3 | 1 to 31.6 nM and 1 to 10 nM | O=C(C1CCN(c2ccc3nccn3n2)CC1)N1N=CC[C@H]1c1ccccc1 [Example 22, (S)-(1-(imidazo[1,2-b]pyridazin-6-yl)piperidin-4-yl)(5-phenyl-4,5-dihydro-1H-pyrazol-1-yl)methanone] | 1 to 100
4 | 1 to 31.6 nM | N#Cc1cccc([C@@H]2CC=NN2C(=O)C2CCN(c3cc(C(N)=O)ncn3)CC2)c1 [Example 70, (S)-6-(4-(5-(3-cyanophenyl)-4,5-dihydro-1H-pyrazole-1-carbonyl)piperidin-1-yl)pyrimidine-4-carboxamide] | 1 to 100
5 | 1 to 31.6 nM | N#Cc1cccc([C@@H]2CC=NN2C(=O)C2CCN(c3ccc4nccn4n3)CC2)c1 [Example 73, (S)-3-(1-(1-(imidazo[1,2-b]pyridazin-6-yl)piperidine-4-carbonyl)-4,5-dihydro-1H-pyrazol-5-yl)benzonitrile] | 1 to 100
6 | 1 to 31.6 nM | O=C(C1CCN(c2cncc(-c3ccccc3)n2)CC1)N1N=CC[C@H]1c1ccccc1 [Example 38, (S)-(5-phenyl-4,5-dihydro-1H-pyrazol-1-yl)(1-(6-phenylpyrazin-2-yl)piperidin-4-yl)methanone] | 1 to 100
7 | 1 to 31.6 nM and 1 to 10 nM | N#Cc1coc(N2CCC(C(=O)N3N=CC[C@H]3c3cc(F)cc(F)c3)CC2)n1 [Example 135, (S)-2-(4-(5-(3,5-difluorophenyl)-4,5-dihydro-1H-pyrazole-1-carbonyl)piperidin-1-yl)oxazole-4-carbonitrile] | 1 to 100
8 | 1 to 31.6 nM | N#Cc1ccc(N2CCC(C(=O)N3N=CC[C@H]3c3ccccc3)CC2)nn1 [Example 42, (S)-6-(4-(5-phenyl-4,5-dihydro-1H-pyrazole-1-carbonyl)piperidin-1-yl)pyridazine-3-carbonitrile] | 1 to 100
9 | 1 to 31.6 nM and 1 to 10 nM | Nc1ncnc(N2CCC(C(=O)N3N=CC[C@H]3c3ccccc3)CC2)c1F [Example 61, (S)-(1-(6-amino-5-fluoropyrimidin-4-yl)piperidin-4-yl)(5-phenyl-4,5-dihydro-1H-pyrazol-1-yl)methanone] | 1 to 100
10 | 1 to 31.6 nM | CNc1ccnc(N2CCC(C(=O)N3N=CC[C@H]3c3ccccc3)CC2)n1 [Example 16, (S)-(1-(4-(methylamino)pyrimidin-2-yl)piperidin-4-yl)(5-phenyl-4,5-dihydro-1H-pyrazol-1-yl)methanone] | 1 to 100
11 | 1 to 31.6 nM | O=C(c1ccnc(N2CCC(C(=O)N3N=CC[C@H]3c3ccccc3)CC2)n1)N1CCNCC1 [Example 146, (S)-(5-phenyl-4,5-dihydro-1H-pyrazol-1-yl)(1-(4-(piperazine-1-carbonyl)pyrimidin-2-yl)piperidin-4-yl)methanone] | 1 to 100
12 | 1 to 31.6 nM | Nc1nccc(N2CCC(C(=O)N3N=CC[C@H]3c3cc(F)cc(F)c3)CC2)n1 [Example 84, (S)-(1-(2-aminopyrimidin-4-yl)piperidin-4-yl)(5-(3,5-difluorophenyl)-4,5-dihydro-1H-pyrazol-1-yl)methanone] | 1 to 100
13 | 1 to 31.6 nM | O=C(C1CCN(c2nnc(-c3ccccc3)o2)CC1)N1N=CC[C@H]1c1ccccc1 [Example 57, (S)-(1-(5-phenyl-1,3,4-oxadiazol-2-yl)piperidin-4-yl)(5-phenyl-4,5-dihydro-1H-pyrazol-1-yl)methanone] | 1 to 100
